Laboratory results: patent US20260206756A1, “COMPOUNDS AND METHODS OF TREATING OR PREVENTING A BACTERIAL INFECTION IN A PLANT” (Ohio State Innovation Foundation, priority 2023, published 2026)

Test system: pollinator honeybees
Experiment: Honeybee acute topical contact toxicity bioassay
Format: in vivo
Details: 48 h, PCs 200 μM, thiamethoxam 0.35 μg per bee
Procedure: Toxicity of the ten PCs on pollinator honeybees. To determine whether the ten selected PCs were toxic to honeybees, an acute topical bioassay was used as recommended by the Ecological Effects Test Guidelines (OCSPP 8503020: Honeybee Acute Contact Toxicity Test). Frames of late stage capped brood were collected from two healthy colonies headed by New Carniolan queens maintained at The Ohio State University Wooster Campus. New adult bees were allowed to emerge in a dark incubator maintained at 32° C. and 60-80% relative humidity and brushed into bulk storage cages daily. Bees were fed sucrose in water (1:1 w/w) and aged for three days in the incubator. Cages of 3-day-old honeybees were anesthetized using carbon dioxide for 2 min and separated into groups of 20 housed in paper cups (UNIQ 6 oz Cups; Frozen Dessert Supplies, Rexburg, Idaho, USA) covered with #20 cotton cheesecloth. The ten PCs were prepared at 200 μM concentration in DMSO. Small groups of honeybees were anaesthetized again with 30 s of carbon dioxide before topical application. The honeybees were individually treated by topically applying lul of the PCs on the dorsal side of thorax using a micro applicator (Hamilton PB-600, Reno, Nevada, USA). […] The mortality of the bees was recorded daily for 48 h. […]

CN1COCN(Cc2cnc(Cl)s2)/C1=N\[N+](=O)[O-] [thiamethoxan, thiamethoxam]
honeybee mortality: 100%
